Measurements reported in ChEMBL document CHEMBL1201861, “Genomics of Drug Sensitity in Cancer screening data, Wellcome Trust Sanger Institute”.

Assays:
Experiment in all cases: cells
Format in all cases: functional, cell-based
Settings in all cases: Homo sapiens
COLO-800 = system: COLO-800;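 further: growth inhibition of COLO-800 cells, read out with a cell viability assay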
Description: SANGER: Inhibition of human COLO-800 cell growth in a cell viability assay.

COR-L88 = system: COR-L88;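 further: growth inhibition of COR-L88 cells, read out with a cell viability assay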
Description: SANGER: Inhibition of human COR-L88 cell growth in a cell viability assay.

D-263MG = system: D-263MG
Description: SANGER: Inhibition of human D-263MG cell growth in a cell viability assay.

DMS-79 = system: DMS-79;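 further: growth inhibition measured with a cell viability assay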
Description: SANGER: Inhibition of human DMS-79 cell growth in a cell viability assay.

DSH1 = system: DSH1;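 further: growth inhibition of human DSH1 cells, measured with a cell viability readout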
Description: SANGER: Inhibition of human DSH1 cell growth in a cell viability assay.

EM-2 = system: EM-2;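 further: growth inhibition of EM-2 cells, read out with a cell viability assay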
Description: SANGER: Inhibition of human EM-2 cell growth in a cell viability assay.

ES8 = system: ES8;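 further: growth inhibition of human ES8 cells, read out with a cell viability assay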
Description: SANGER: Inhibition of human ES8 cell growth in a cell viability assay.

EW-3 = system: EW-3;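 further: cell viability assay read-out, IC50 reflects inhibition of growth of the EW-3 cells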
Description: SANGER: Inhibition of human EW-3 cell growth in a cell viability assay.

GAK = system: GAK;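 further: cell growth inhibition read out by a cell viability assay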
Description: SANGER: Inhibition of human GAK cell growth in a cell viability assay.

GI-ME-N = system: GI-ME-N;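 further: growth inhibition of human GI-ME-N cells, read out with a cell viability assay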
Description: SANGER: Inhibition of human GI-ME-N cell growth in a cell viability assay.

GR-ST = system: GR-ST
Description: SANGER: Inhibition of human GR-ST cell growth in a cell viability assay.

HAL-01 = system: HAL-01;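 further: growth inhibition of human HAL-01 cells, read out with a cell viability assay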
Description: SANGER: Inhibition of human HAL-01 cell growth in a cell viability assay.

HCC2218 = system: HCC2218;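 further: cell viability assay read-out, with IC50 given as the concentration that inhibits growth of the cell line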
Description: SANGER: Inhibition of human HCC2218 cell growth in a cell viability assay.

HL-60 = system: HL-60;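 further: growth inhibition of human HL-60 cells, read out with a cell viability assay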
Description: SANGER: Inhibition of human HL-60 cell growth in a cell viability assay.

HOP-62 = system: HOP-62;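 further: cell growth inhibition determined with a viability assay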
Description: SANGER: Inhibition of human HOP-62 cell growth in a cell viability assay.

IST-MEL1 = system: IST-MEL1;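 further: growth inhibition of the cell line, read out with a cell viability assay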
Description: SANGER: Inhibition of human IST-MEL1 cell growth in a cell viability assay.

J-RT3-T3-5 = system: J-RT3-T3-5;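 further: cell viability assay measuring growth inhibition of human J-RT3-T3-5 cells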
Description: SANGER: Inhibition of human J-RT3-T3-5 cell growth in a cell viability assay.

JAR = system: JAR;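 further: growth inhibition of human JAR cells determined with a cell viability assay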
Description: SANGER: Inhibition of human JAR cell growth in a cell viability assay.

K5 = system: K5
Description: SANGER: Inhibition of human K5 cell growth in a cell viability assay.

KALS-1 = system: KALS-1;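 further: growth inhibition of KALS-1 cells, determined with a cell viability assay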
Description: SANGER: Inhibition of human KALS-1 cell growth in a cell viability assay.

KINGS-1 = system: KINGS-1;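 further: cell viability assay measuring suppression of KINGS-1 cell growth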
Description: SANGER: Inhibition of human KINGS-1 cell growth in a cell viability assay.

KMOE-2 = system: KMOE-2;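 further: growth inhibition of human KMOE-2 cells, read out with a cell viability assay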
Description: SANGER: Inhibition of human KMOE-2 cell growth in a cell viability assay.

KS-1 = system: KS-1;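 further: growth inhibition of KS-1 cells, read out with a cell viability assay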
Description: SANGER: Inhibition of human KS-1 cell growth in a cell viability assay.

KU812 cell line = system: KU812 cell line;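 further: growth inhibition of KU812 cells, read out with a cell viability assay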
Description: SANGER: Inhibition of human KU812 cell growth in a cell viability assay.

KY821 = system: KY821;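 further: growth inhibition of human KY821 cells, read out by a cell viability assay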
Description: SANGER: Inhibition of human KY821 cell growth in a cell viability assay.

LB373-MEL-D = system: LB373-MEL-D;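 further: growth inhibition of the cell line, read out in a cell viability assay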
Description: SANGER: Inhibition of human LB373-MEL-D cell growth in a cell viability assay.

LB771-HNC = system: LB771-HNC;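 further: growth inhibition of LB771-HNC human cells, read out with a cell viability assay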
Description: SANGER: Inhibition of human LB771-HNC cell growth in a cell viability assay.

LNCaP-Clone-FGC = system: LNCaP-Clone-FGC
Description: SANGER: Inhibition of human LNCaP-Clone-FGC cell growth in a cell viability assay.

MHH-NB-11 = system: MHH-NB-11;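 further: growth inhibition of human MHH-NB-11 cells, read out by a cell viability assay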
Description: SANGER: Inhibition of human MHH-NB-11 cell growth in a cell viability assay.

MLMA = system: MLMA;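 further: growth inhibition of MLMA cells (human), determined through a cell viability readout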
Description: SANGER: Inhibition of human MLMA cell growth in a cell viability assay.

MOLT-16 = system: MOLT-16;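 further: growth inhibition of human MOLT-16 cells, read out with a cell viability assay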
Description: SANGER: Inhibition of human MOLT-16 cell growth in a cell viability assay.

MOLT-4 = system: MOLT-4;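 further: growth inhibition of MOLT-4 cells, determined with a cell viability readout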
Description: SANGER: Inhibition of human MOLT-4 cell growth in a cell viability assay.

MPP-89 = system: MPP-89;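 further: growth inhibition of human MPP-89 cells, read out with a cell viability assay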
Description: SANGER: Inhibition of human MPP-89 cell growth in a cell viability assay.

MS-1 = system: MS-1;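 further: growth inhibition of MS-1 cells, read out by cell viability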
Description: SANGER: Inhibition of human MS-1 cell growth in a cell viability assay.

MSTO-211H = system: MSTO-211H
Description: SANGER: Inhibition of human MSTO-211H cell growth in a cell viability assay.

NB10 = system: NB10;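 further: growth inhibition of NB10 cells, read out by a cell viability assay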
Description: SANGER: Inhibition of human NB10 cell growth in a cell viability assay.

NB13 = system: NB13;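 further: cell viability readout measuring growth inhibition of human NB13 cells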
Description: SANGER: Inhibition of human NB13 cell growth in a cell viability assay.

NCI-H1299 = system: NCI-H1299;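 further: growth inhibition of human NCI-H1299 cells, read out by a cell viability assay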
Description: SANGER: Inhibition of human NCI-H1299 cell growth in a cell viability assay.

NCI-H1304 = system: NCI-H1304;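 further: growth inhibition of the cancer cell line, measured in a cell viability assay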
Description: SANGER: Inhibition of human NCI-H1304 cell growth in a cell viability assay.

NCI-H1648 = system: NCI-H1648;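 further: cell viability assay measuring inhibition of NCI-H1648 cell growth, from the Sanger screening data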
Description: SANGER: Inhibition of human NCI-H1648 cell growth in a cell viability assay.

NCI-H1650 = system: NCI-H1650;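 further: growth inhibition of human NCI-H1650 cells measured by a cell viability assay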
Description: SANGER: Inhibition of human NCI-H1650 cell growth in a cell viability assay.

NCI-H2126 = system: NCI-H2126;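 further: growth inhibition of the cancer cell line, determined with a cell viability readout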
Description: SANGER: Inhibition of human NCI-H2126 cell growth in a cell viability assay.

NCI-H510A = system: NCI-H510A;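 further: growth inhibition of NCI-H510A cells, read out with a cell viability assay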
Description: SANGER: Inhibition of human NCI-H510A cell growth in a cell viability assay.

NCI-H747 = system: NCI-H747;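 further: growth inhibition of human NCI-H747 cells, read out by a cell viability assay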
Description: SANGER: Inhibition of human NCI-H747 cell growth in a cell viability assay.

NCI-H82 = system: NCI-H82;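 further: growth inhibition of NCI-H82 cells, measured with a cell viability readout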
Description: SANGER: Inhibition of human NCI-H82 cell growth in a cell viability assay.

SNU1 = system: SNU1;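 further: growth inhibition of human NCI-SNU-1 cells, measured with a cell viability assay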
Description: SANGER: Inhibition of human NCI-SNU-1 cell growth in a cell viability assay.

SNU-5 = system: SNU-5;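 further: cell viability readout used to measure growth inhibition in human NCI-SNU-5 cells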
Description: SANGER: Inhibition of human NCI-SNU-5 cell growth in a cell viability assay.

OCUB-M = system: OCUB-M;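 further: growth inhibition of the cancer cell line, read out through a cell viability assay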
Description: SANGER: Inhibition of human OCUB-M cell growth in a cell viability assay.

OS-RC-2 = system: OS-RC-2;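 further: growth inhibition of human OS-RC-2 cells, measured by a cell viability assay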
Description: SANGER: Inhibition of human OS-RC-2 cell growth in a cell viability assay.

SCC-15 = system: SCC-15;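 further: growth inhibition of SCC-15 cells, read out with a cell viability assay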
Description: SANGER: Inhibition of human SCC-15 cell growth in a cell viability assay.

SF-539 = system: SF-539;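 further: Read-out is a cell viability assay, with IC50 reflecting inhibition of cell growth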
Description: SANGER: Inhibition of human SF539 cell growth in a cell viability assay.

SK-NEP-1 = system: SK-NEP-1;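 further: growth inhibition of human SK-NEP-1 cells, read out by a cell viability assay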
Description: SANGER: Inhibition of human SK-NEP-1 cell growth in a cell viability assay.

SK-UT-1 = system: SK-UT-1
Description: SANGER: Inhibition of human SK-UT-1 cell growth in a cell viability assay.

8-MG-BA = system: 8-MG-BA
Description: SANGER: Inhibition of human 8-MG-BA cell growth in a cell viability assay.

A3-KAW = system: A3-KAW
Description: SANGER: Inhibition of human A3-KAW cell growth in a cell viability assay.

ALL-PO = system: ALL-PO
Description: SANGER: Inhibition of human ALL-PO cell growth in a cell viability assay.

AM-38 = system: AM-38
Description: SANGER: Inhibition of human AM-38 cell growth in a cell viability assay.

BT-474 = system: BT-474
Description: SANGER: Inhibition of human BT-474 cell growth in a cell viability assay.

BV-173 = system: BV-173
Description: SANGER: Inhibition of human BV-173 cell growth in a cell viability assay.

Becker = system: Becker
Description: SANGER: Inhibition of human Becker cell growth in a cell viability assay.

C8166 = system: C8166
Description: SANGER: Inhibition of human C8166 cell growth in a cell viability assay.

TE-5 = system: TE-5
Description: SANGER: Inhibition of human TE-5 cell growth in a cell viability assay.

TE-9 = system: TE-9
Description: SANGER: Inhibition of human TE-9 cell growth in a cell viability assay.

U-266 = system: U-266
Description: SANGER: Inhibition of human U-266 cell growth in a cell viability assay.

VA-ES-BJ = system: VA-ES-BJ
Description: SANGER: Inhibition of human VA-ES-BJ cell growth in a cell viability assay.

no-10 = system: no-10
Description: SANGER: Inhibition of human no-10 cell growth in a cell viability assay.

CC(O)(CS(=O)(=O)c1ccc(F)cc1)C(=O)Nc1ccc(C#N)c(C(F)(F)F)c1 (configuration not stated) [BICALUTAMIDE]
IC50 (COLO-800): > 1.02 µM | IC50 (COR-L88): > 1.02 µM | IC50 (D-263MG): > 1.02 µM | IC50 (DMS-79): > 1.02 µM | IC50 (DSH1): > 1.02 µM | IC50 (EM-2): > 1.02 µM | IC50 (ES8): > 1.02 µM | IC50 (EW-3): > 1.02 µM | IC50 (GAK): > 1.02 µM | IC50 (GI-ME-N): > 1.02 µM | IC50 (GR-ST): > 1.02 µM | IC50 (HAL-01): > 1.02 µM | IC50 (HCC2218): > 1.02 µM | IC50 (HL-60): > 1.02 µM | IC50 (HOP-62): > 1.02 µM | IC50 (IST-MEL1): > 1.02 µM | IC50 (J-RT3-T3-5): > 1.02 µM | IC50 (JAR): > 1.02 µM | IC50 (K5): > 1.02 µM | IC50 (KALS-1): > 1.02 µM | IC50 (KINGS-1): > 1.02 µM | IC50 (KMOE-2): > 1.02 µM | IC50 (KS-1): > 1.02 µM | IC50 (KU812 cell line): > 1.02 µM | IC50 (KY821): > 1.02 µM | IC50 (LB373-MEL-D): > 1.02 µM | IC50 (LB771-HNC): > 1.02 µM | IC50 (LNCaP-Clone-FGC): > 1.02 µM | IC50 (MHH-NB-11): > 1.02 µM | IC50 (MLMA): > 1.02 µM | IC50 (MOLT-16): > 1.02 µM | IC50 (MOLT-4): > 1.02 µM | IC50 (MPP-89): > 1.02 µM | IC50 (MS-1): > 1.02 µM | IC50 (MSTO-211H): > 1.02 µM | IC50 (NB10): > 1.02 µM | IC50 (NB13): > 1.02 µM | IC50 (NCI-H1299): > 1.02 µM | IC50 (NCI-H1304): > 1.02 µM | IC50 (NCI-H1648): > 1.02 µM | IC50 (NCI-H1650): > 1.02 µM | IC50 (NCI-H2126): > 1.02 µM | IC50 (NCI-H510A): > 1.02 µM | IC50 (NCI-H747): > 1.02 µM | IC50 (NCI-H82): > 1.02 µM | IC50 (SNU1): > 1.02 µM | IC50 (SNU-5): > 1.02 µM | IC50 (OCUB-M): > 1.02 µM | IC50 (OS-RC-2): > 1.02 µM | IC50 (SCC-15): > 1.02 µM | IC50 (SF-539): > 1.02 µM | IC50 (SK-NEP-1): > 1.02 µM | IC50 (SK-UT-1): > 1.02 µM | IC50 (8-MG-BA): > 1.02 µM | IC50 (A3-KAW): > 1.02 µM | IC50 (ALL-PO): > 1.02 µM | IC50 (AM-38): > 1.02 µM | IC50 (BT-474): > 1.02 µM | IC50 (BV-173): > 1.02 µM | IC50 (Becker): > 1.02 µM | IC50 (C8166): > 1.02 µM | IC50 (TE-5): > 1.02 µM | IC50 (TE-9): > 1.02 µM | IC50 (U-266): > 1.02 µM | IC50 (VA-ES-BJ): > 1.02 µM | IC50 (no-10): > 1.02 µM

N#C/C(=C1/Nc2ccccc2S1)c1ccnc(NCCc2cccnc2)n1
IC50 (COLO-800): > 8 µM | IC50 (COR-L88): > 8 µM | IC50 (D-263MG): > 8 µM | IC50 (DMS-79): > 8 µM | IC50 (DSH1): > 8 µM | IC50 (EM-2): > 8 µM | IC50 (ES8): > 8 µM | IC50 (EW-3): > 8 µM | IC50 (GAK): 6.74 µM | IC50 (GI-ME-N): > 8 µM | IC50 (GR-ST): > 8 µM | IC50 (HAL-01): > 8 µM | IC50 (HCC2218): > 8 µM | IC50 (HL-60): > 8 µM | IC50 (HOP-62): > 8 µM | IC50 (IST-MEL1): > 8 µM | IC50 (J-RT3-T3-5): > 8 µM | IC50 (JAR): > 8 µM | IC50 (K5): > 8 µM | IC50 (KALS-1): > 8 µM | IC50 (KINGS-1): > 8 µM | IC50 (KMOE-2): > 8 µM | IC50 (KS-1): 6.03 µM | IC50 (KU812 cell line): 6.65 µM | IC50 (KY821): > 8 µM | IC50 (LB373-MEL-D): > 8 µM | IC50 (LB771-HNC): > 8 µM | IC50 (LNCaP-Clone-FGC): > 8 µM | IC50 (MHH-NB-11): > 8 µM | IC50 (MLMA): > 8 µM | IC50 (MOLT-16): 1.38 µM | IC50 (MOLT-4): > 8 µM | IC50 (MPP-89): 5.2 µM | IC50 (MS-1): > 8 µM | IC50 (MSTO-211H): > 8 µM | IC50 (NB10): > 8 µM | IC50 (NB13): > 8 µM | IC50 (NCI-H1299): 4.78 µM | IC50 (NCI-H1304): > 8 µM | IC50 (NCI-H1648): > 8 µM | IC50 (NCI-H1650): > 8 µM | IC50 (NCI-H2126): > 8 µM | IC50 (NCI-H510A): > 8 µM | IC50 (NCI-H747): 6.03 µM | IC50 (NCI-H82): > 8 µM | IC50 (SNU1): > 8 µM | IC50 (SNU-5): > 8 µM | IC50 (OCUB-M): 1.08 µM | IC50 (OS-RC-2): > 8 µM | IC50 (SCC-15): > 8 µM | IC50 (SF-539): > 8 µM | IC50 (SK-NEP-1): > 8 µM | IC50 (SK-UT-1): 7.5 µM | IC50 (8-MG-BA): 3.68 µM | IC50 (A3-KAW): > 8 µM | IC50 (ALL-PO): 1.79 µM | IC50 (AM-38): > 8 µM | IC50 (BT-474): > 8 µM | IC50 (BV-173): > 8 µM | IC50 (Becker): 4.34 µM | IC50 (C8166): 4.47 µM | IC50 (TE-5): > 8 µM | IC50 (TE-9): 6.49 µM | IC50 (U-266): > 8 µM | IC50 (VA-ES-BJ): > 8 µM | IC50 (no-10): > 8 µM
